Laboratory results published in patent US20220177911A1, “SYNTHETIC CIRCUIT FOR CELLULAR MULTISTABILITY” (California Institute of Technology, priority 2020, published 2022).

Key:
[1] = tested on: MultiFate-2.3 cells; assay: Flow cytometry analysis of MultiFate-2.3 state-switching; assay type: cell-based, Chinese hamster
Excerpt: FIG. 21A-FIG. 21C depict non-limiting exemplary data related to raw flow cytometry analysis of MultiFate-2.3 state-switching. Each plot represents one of three biological replicates at the indicated time point (cf. FIG. 4B). Initial A-only, B-only and A+B cells (rows) were sorted under the media conditions indicated on the top. Each 2-dimensional flow cytometry plot was divided at mCherry=104 and mCitrine=104 into four quadrants, representing four states. For each plot, the percentage of cells in each of the four states is labeled on the corresponding corner. Timelines above each set of plots represent the time and indicated inducer conditions. Note that since the response elements for 4-OHT or Dox are adjacent to the transcription factor homodimer binding sites (Table 2), the addition of 4-OHT or Dox increases A or B expression up to, but not substantially beyond, the level produced by transcription factor self-activation. […] Additional Dox activation further increased the B expression only by another 1.4 fold (Day 6 versus Day 18).
Finally, it was asked to what extent cells could be deliberately switched from one state to another through transient perturbations. MultiFate-2.3, in which the A and B genes can be independently activated by 4-hydroxy-tamoxifen (4-OHT) and Dox, respectively, was used to address this question. In this cell-line, the response elements for the inducers are adjacent to the homodimer binding sites. Therefore, the addition of inducers increases A or B expression up to, but not substantially beyond, the level produced by self-activation (FIG. 2C and FIG. 21A-FIG. 21C). In the bistable regime, transient induction of either transcription factor switched cells into the corresponding state, where they remained in the absence of further induction (FIG. 8A, FIG. 4B, left, and FIG. 21A). […]
For flow cytometry experiments characterizing state stability (FIG. 3C and FIG. 5B) and state-switching dynamics (FIG. 4A-FIG. 4B), cells from each state were sorted into media containing corresponding inducers. […] The remaining 96% cells were suspended in the flow cytometry buffer and analyzed by flow cytometry. […]
To characterize long-term state stability of MultiFate cells in different media conditions (FIG. 3A-FIG. 5D), 4% of cells were trypsinized and transferred into fresh media with the same condition every three days. The remaining cells were resuspended in flow cytometry buffer and analyzed by a flow cytometer. The resulting two-dimensional (or three-dimensional for MultiFate-3) fluorescence intensity plots were then divided into four quadrants (or eight octants) by an empirical threshold in each of the two (or three) fluorescence channels. […]

[2] = tested on: reporter containing 18 bp homodimer binding sites driving the expression of Citrine; assay: Transient co-transfection Citrine reporter assay of ZF transcription factors; assay type: cell-based, Chinese hamster
Excerpt: To engineer ZF transcription factors, the ErbB2 ZF DNA-binding domain was fused to a GCN4 homodimerization domain and a VP48 transcriptional activation domain to create the synthetic transcription factor, termed ZF-GCN4-AD (FIG. 2A). A transcription factor (ZF-AD) lacking GCN4 was used as a monomeric control. To assay their transcriptional activity, a reporter was constructed containing 18 bp homodimer binding sites driving the expression of Citrine. Each transcription factor was then co-transfected together with the reporter and an mTagBFP2 co-transfection marker into Chinese hamster ovary K1 (CHO-K1) cells, and analyzed for Citrine expression by flow cytometry 36 hours later (FIG. 2A and FIG. 9A) (See, “Additional Methods” below). […] Arginine-to-alanine mutations were introduced at key positions in the ZF known to weaken DNA binding, which decreased monomeric activity without reducing homodimer activity (FIG. 2A, red square). […]
All tissue culture experiments were performed with Chinese hamster ovary K1 cells (CHO-K1, ATCC). […] Cells were harvested after 36 hours and cell fluorescence was measured by flow cytometry. […] After another 72 hours, cells were harvested and analyzed by flow cytometry. […] The inhibition strength was quantified as the reduction of self-activation cell fractions. […]

[3] = tested on: self-activation construct in Tet3G-expressing CHO-K1 cells; assay: ZF transcription factor self-activation assay (normalized mCitrine+ fraction); assay type: cell-based, Chinese hamster; settings: 24 hours Dox, then Dox withdrawn; 72 hours in AP1903 and/or TMP
Excerpt: To validate this capability, a self-activation construct was designed (FIG. 2C), in which a transcription factor with a FKBP dimerization domain is expressed from a promoter containing its own 18 bp homodimer binding sites (Table 2). This construct allowed independent Dox-inducible activation through upstream Tet3G (Takara Bio) binding sites. […] Finally, a destabilized mCitrine was incorporated for dynamic readout of construct expression. This construct was integrated into Tet3G-expressing CHO-K1 cells, generating a stable polyclonal population for further analysis (Table 3) (See, “Additional Methods” below).
For experiments characterizing ZF transcription factor self-activation (FIG. 2C and FIG. 10A), each self-activation construct was stably integrated (Table 2) into polyclonal Tet3G-expressing CHO-K1 cells via PiggyBac (Systems Biosciences) to make a polyclonal cell line (Table 3). […] After another 72 hours, cells were harvested and analyzed by flow cytometry.
Each self-activation construct (Table 2, construct MF63-MF69) was stably integrated into Tet3G-expressing CHO-K1 cells. […] After another 72 hours, cells were harvested and analyzed by flow cytometry. […]

[4] = tested on: monoclonal self-activation stable lines (42ZFR2AR39AR67A DNA-binding domain); assay: Inhibition of self-activation by competitive dimerization; assay type: cell-based, Chinese hamster; settings: 100 nM AP1903 and 10 μM TMP
Excerpt: To test this, monoclonal cell lines with the self-activating circuits were selected, and then constructs expressing proteins were stably integrated with a different ZF DNA-binding domain and a matching or mismatching dimerization domain to generate a polyclonal cell population for each perturbation construct (Table 2 and Table 3) (See, “Additional Methods” below). […] Without being bound by any particular theory, this may be through non-specific mechanisms (FIG. 2D and FIG. 10B-FIG. 10C).
All tissue culture experiments were performed with Chinese hamster ovary K1 cells (CHO-K1, ATCC). […] Cells were harvested after 36 hours and cell fluorescence was measured by flow cytometry. […] After another 72 hours, cells were harvested and analyzed by flow cytometry. […] The inhibition strength was quantified as the reduction of self-activation cell fractions.
To determine whether competitive dimerization inhibits self-activation (FIG. 2D and FIG. 10B-FIG. 10C), plasmids (Table 2, construct MF72-MF80) expressing different transcription factor variants and a co-translational mCherry were stably integrated in these two monoclonal lines. After puromycin selection, cells were transferred into media containing 100 nM AP1903+10 μM TMP to permit self-activation, and measured by flow cytometry after another 72 hours. […]

[5] = target: T1, homodimerization domain (Homo sapiens, UniProt P62942, F37V); assay: Dissociation constant of homodimerization domains (parameter estimate); assay type: binding; settings: media containing 100 nM AP1903; reasoned from reporter activation versus GCN4; read-out: apparent dissociation constant Kd of homodimerization
T1 construct: expressed in transfected cells; host or cells: CHO-K1
Experimental: Finally, parameters related to protein dimerization were estimated. In some embodiments, the apparent dissociation constant Kd of FKBP homodimerization domain may depend on AP1903 concentrations. […] Based on this observation, it was reasoned that in media containing 100 nM AP1903, the apparent dissociation constant Kd≤10 nM. An estimate of Kd=10 nM=8000 molecules/cell was used in the model. For monomer association rate kon, an intermediate value in the range of diffusion-limited association rates of kon=4×10^5/(M·s)=1.8×10^−3 cell/(protein·hr) was used. These two values together produce a dimer dissociation rate koff=Kd×kon=[…].

[6] = target: homodimerization domain; settings: cited from earlier work

T1 sequence (P62942 2-108 F37V): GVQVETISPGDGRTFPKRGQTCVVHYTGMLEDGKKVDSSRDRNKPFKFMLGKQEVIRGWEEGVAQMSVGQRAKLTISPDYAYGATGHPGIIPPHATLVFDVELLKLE

Question: With 4-hydroxy-tamoxifen [4-OHT] as the compound, how does the “additional increase in A expression by inducer compared with self-activation (Day 6 versus Day 18)” value ([1]; 4-OHT 25 nM) read?
Answer: The value was 2.8 fold.

Question: With `CC[C@H](C(=O)N1CCCC[C@H]1C(=O)O[C@H](CCc1ccc(OC)c(OC)c1)c1cccc(OCC(=O)NCCNC(=O)COc2cccc([C@@H](CCc3ccc(OC)c(OC)c3)OC(=O)[C@@H]3CCCCN3C(=O)[C@@H](CC)c3cc(OC)c(OC)c(OC)c3)c2)c1)c1cc(OC)c(OC)c(OC)c1` [AP1903] as the compound, how does the “control of ZF transcription factor dimerization/activation by dimerization ligand” value ([2]; FKBP12F36V (FKBP) homodimerization domain instead of GCN4, BCRZFR39A) read?
Answer: The value was “dose-dependent control of dimerization”.

Question: What about the “self-activation after Dox withdrawal (mCitrine distribution)” value [3] of the same compound?
Answer: The value was “bimodal distribution of mCitrine fluorescence”.

Question: For `C[C@H]1c2cccc(O)c2C(=O)C2=C(O)[C@]3(O)C(=O)C(C(N)=O)=C(O)[C@@H](N(C)C)[C@@H]3[C@@H](O)[C@@H]21` [Dox], which “additional increase in B expression by inducer compared with self-activation (Day 6 versus Day 18)” value ([1]; Dox 500 ng/ml) is on record?
Answer: The value was 1.4 fold.

Question: Which “self-activation after Dox withdrawal (mCitrine distribution)” value [3] does the source give for `COc1cc(Cc2cnc(N)nc2N)cc(OC)c1OC` [TMP, trimethoprim] here?
Answer: The value was “promoted self-activation in a dose-dependent manner”.

Question: Which results are given for “FKBP: FKBP12F36V homodimerization domain (SEQ ID NO: 5)”?
Answer: inhibition of self-activation ([4]; FKBP-42ZFR2AR39AR67A-VP48-DHFR self-activation cells): can partially inhibit self-activation; Kd [5]: ≤ 10 nM

Question: Which inhibition of self-activation ([4]; 42ZFR2AR39AR67A-GCN4-VP48-DHFR self-activation cells) does the source give for GCN4: GCN4 homodimerization domain here?
Answer: The inhibition of self-activation was “did not have inhibitory effects”.

Question: And the Kd [6]?
Answer: Its Kd is 10 to 20 nM.

Question: With “NLS-FKBP12F36V-37ZFR2AR11AR39AR67A-VP16-NLS-DHFR [transcription factor B]” as the compound, how does the “increase in B expression by transcription factor self-activation (Day 18 versus Day 0)” value [1] read?
Answer: Its value is 48 fold.

Question: With “NLS-FKBP12F36V-BCRZFR39A-VP16-NLS-DHFR [transcription factor A]” as the compound, how does the “increase in A expression by transcription factor self-activation (mCherry median Day 18 / Day 0)” value ([1]; mean of three replicates) read?
Answer: Its value is 125 fold.

Question: With “ZF-GCN4-AD: ErbB2 ZF DNA-binding domain fused to GCN4 homodimerization domain and VP48 activation domain” as the compound, how does the “reporter activation by ZF transcription factor” value ([2]; ErbB2 ZF, VP48 activation domain, wild-type (WT) ZF, flow cytometry 36 hours after transfection) read?
Answer: The value was “strongly activated the reporter”.
